# Read-outs that look alike come from different tables or passages of the source.
# Columns and labels:
# [1] = biological target: T1, FOF1-ATPase of WT E. coli membranes (Escherichia coli, UniProt P68699); assay: biochemical; assay type: biochemical; settings: for ATPase rate, Early / ATPase rate, Late / Late/early ratio: 10 µM ventA final; for Ki: VentA at half-max. inhibition (Ki), early inhibition
# T1 construct: To express haploid levels of EcFOF1 containing WT-ε or ε88-stop; expressed in transfected cells; host or cells: E. coli strain XH1 (chromosomal atpC deletion) carrying pMBε1; inverted membrane vesicles
# Description: ATP hydrolysis is enzyme-coupled to conversion of NADH to NAD^+, which results in decreased light absorbance; thus, a larger rate of ATP hydrolysis is indicated by a steeper downward slope. The system also rapidly regenerates ATP, minimizing the concentration of product ADP during the assay. Unless noted, assays were preincubated to establish a steady state hydrolysis rate (see “Methods”) before the ‘zero’ point of measurements.
# Plasmid pXH302S, which encodes the WT atpC gene and expresses near haploid levels of the ε subunit, was subjected to fusion PCR mutagenesis to construct plasmid pMBε1, with an N-terminal affinity tag ([…]) added prior to the initial Met residue. To express the ε88-stop subunit, an AfeI-ScaI restriction fragment of WT pMBε1 was replaced by the analogous fragment from pH6ε88-stop[46]. To express haploid levels of EcFOF1 containing WT-ε or ε88-stop, the appropriate version of pMBε1 was transformed into E. coli strain XH1, which has a chromosomal deletion of the atpC gene for ε[54]. For these transformed strains, cultures were grown and inverted membrane vesicles (IMV) were prepared according to [55]. WT ε, with the same N-terminal His6-tag, was over-expressed from pH6ε and purified as described.
# ATP hydrolysis by membrane vesicles was assayed spectrophotometrically[57] at 30 °C using an open-chamber, diode array spectrophotometer (Hewlett Packard 8453 UV–Vis) as described in[29]. The assay medium (1 ml per assay) contained 20 mM Mops/Tris, pH 8.0, 0.2 mM EDTA, 10 mM CH3COOK, 1 mM ATP, 3.2 mM Mg(CH3COO)2, 1 mM phosphoenolpyruvate, at least 0.3 mM NADH, 0.1 mg/ml pyruvate kinase, 0.1 mg/ml lactate dehydrogenase, 5 mM KCN, and 5 μM carbonyl cyanide 4-(trifluoromethoxy)-phenylhydrazone. […] To avoid interference of this increase with the changes of ATPase activity induced by venturicidins, unless indicated otherwise, measurement of ATPase activities were started 60 min after addition of membranes to the complete assay medium. […] To keep absorbance between 1.5 and 2 units after the 60-min preincubation, up to 0.2 mM additional NADH was added to the assay medium. In figures displaying activity traces, some traces are shifted vertically for visual clarity.
# [2] = tested on: FOF1 in membranes from P. denitrificans; set-up: method as in PMID 10672007; settings: cited from earlier work
# S. aureus (MRSA) strains = settings: cited from earlier work
# E. coli = tested on: E. coli; set-up: method as in PMID 32424122; settings: complex growth medium; cited from earlier work
# mitoFOF1 = tested on: mitoFOF1; set-up: method as in PMID 124668; settings: cited from earlier work
# [3] = preincubation +MgATP, no ventA, selenite
# [4] = preincubation No MgATP, +ventA (trace 2), 40 mM selenite
# [5] = WT + 6 μM azide (Fig. 2C), best fit of early rates
# [6] = WT + 38.5 mM selenite (Fig. 2B), best fit of early rates
smiles,measurement,setting,value
"CCC(=O)C(C)C(O)C(C)CC(C)C1OC(=O)CC2(O)CC=C(C)C(O2)C(C)=CCCCC(OC2CC(OC(N)=O)C(O)C(C)O2)C=CC(C)CC1C (stereo not shown) [ventA, venturicidin A]",Late rate (last 3 min of assay),"[1]; 9.5 μM ventA, 38.5 mM selenite (Fig. 5A #3)",2.7 U/mg
same,Rate during 100 s immediately before adding ε,"[1]; 9.5 μM ventA, 38.5 mM selenite (Fig. 5A trace #4)",2.5 U/mg
same,"ATPase rate, Early",[1]; [3],1.27 U/mg
same,"ATPase rate, Late",[1]; [3],2.97 U/mg
same,Late/early ratio,[1]; [3],2.34
same,"ATPase rate, Early",[1]; [4],1.22 U/mg
same,"ATPase rate, Late",[1]; [4],2.93 U/mg
same,Late/early ratio,[1]; [4],2.40
same,Decrease of initial ATPase rate,"[1]; 30 min preincubation with 10 μM ventA without ATP, selenite present",about 40%
same,Ki,[1]; WT + 6 μM azide (Fig. 2C),1700 nM
same,Ki,[1]; WT + 38.5 mM selenite (Fig. 2B),230 nM
same,Ki,"[1]; WT, alone (Fig. 2A)",700 nM
same,ATPase at saturating ventA (y0),[1]; [5],36% (± 4)
same,VentA-sensitive ATPase (y1),[1]; [5],106% (± 5)
same,ATPase at saturating ventA (y0),[1]; [6],53% (± 1)
same,VentA-sensitive ATPase (y1),[1]; [6],46% (± 2)
same,"Sensitivity to immediate inhibition, selenite vs azide","[1]; WT EcFOF1, MgADP-inhibited state minimized by selenite vs increased by azide",~ sevenfold
same,Increase of early Ki value by azide,"[1]; WT, 6 µM azide vs none",2.4 fold
same,ATPase at saturating ventA (y0),"[1]; WT, alone (Fig. 2A), best fit of early rates",47% (± 2)
same,VentA-sensitive ATPase (y1),"[1]; WT, alone (Fig. 2A), best fit of early rates (within 1 min after adding ventA)",80% (± 5)
same,Reduction of Ki for early inhibition by selenite,"[1]; WT, with vs without selenite",threefold
same,"Immediate increase in ATPase rate, first minute post-addition","[1]; lower ventA concentration (Fig. 1, trace 2), no effector",11%
same,inhibition at 10 µM,[1]; read-out: Additional time-dependent inhibition,~25%
same,ATPase activity during the last 3 min of assays,"[1]; ventA added after 0.1 mM DCCD (trace 3, 15 μM ventA), no selenite",0.49 (± 0.06) U/mg
same,ATPase activity during the last 3 min of assays,"[1]; ventA added before 0.1 mM DCCD (trace 2, 10 μM ventA), no selenite",0.53 (± 0.05) U/mg
same,ATPase activity during the last 3 min of assays,"[1]; ventA after 0.1 mM DCCD (trace 3, 15 μM ventA), 38.5 mM selenite",2.84 U/mg
same,ATPase activity during the last 3 min of assays,"[1]; ventA before 0.1 mM DCCD (trace 2, 10 μM ventA), 38.5 mM selenite",2.93 U/mg
same,"Sensitivity of ATPase to ventA inhibition, sulfite-activated vs PMF-activated FOF1",[2],~ threefold
same,Reduction of cellular ATP,S. aureus (MRSA) strains; 16 μg ventA/ml,~ 40%
same,Concentration at which maximal effect on Δψ was achieved,S. aureus (MRSA) strains; MRSA strain tested further,16 μg ventA/ml
same,Reduction of cellular ATP,S. aureus (MRSA) strains; fourfold greater ventA than 16 μg/ml,~ 90%
same,Adjuvant action,E. coli,minimal adjuvant action
same,Stimulation of solubilized ATPase,mitoFOF1; detergent-solubilized mitoFOF1,up to 3 fold
same,Inhibition of membrane ATPase,mitoFOF1; mitoFOF1 in membranes,95%
